US9302999B2, “Substituted triazoles as herbicides” (E. I. DU PONT DE NEMOURS AND COMPANY, priority 2012, dated 2016)
Read-outs that look alike come from different tables or passages of the source.

Columns and labels:
Assay type in all cases: in vivo
[1] = system: crabgrass, large (large crabgrass, Digitaria sanguinalis); assay: Test A pre-/postemergence: crabgrass, large; conditions: for pest or weed control at 125 g/ha / pest or weed control at 500 g/ha: Digitaria sanguinalis, 240 h; for pest or weed control at 125 g/ha: 125 g ai/ha; for pest or weed control at 500 g/ha: 500 g ai/ha; for Crabgrass, Large plant response rating: 1000 g ai/ha
Procedure, shortened: (§1)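 Rating scale 0–100 (100 = complete control), visual, ~10 days after application in the greenhouse. Applications: preemergence directed soil spray; postemergence at 1–2 leaves.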

[2] = system: velvetleaf (Abutilon theophrasti); assay: Test A pre-/postemergence: velvetleaf; conditions: for pest or weed control at 125 g/ha / pest or weed control at 500 g/ha: Abutilon theophrasti, 240 h; for pest or weed control at 125 g/ha: 125 g ai/ha; for pest or weed control at 500 g/ha: 500 g ai/ha; for Velvetleaf plant response rating: 1000 g ai/ha
Procedure, shortened: as §1

corn (Zea mays) = assay: Test A pre-/postemergence: corn; conditions: for Corn plant response rating: 1000 g ai/ha
Procedure, shortened: as §1

[3] = system: blackgrass (Alopecurus myosuroides); assay: Test C pre-/postemergence: blackgrass
Procedure, shortened: (§2)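 Preemergence on seeds in loam/sand, postemergence on 2–18 cm (1–4-leaf) plants in peat-based medium; compounds in non-phytotoxic solvent with surfactant. After 13–15 days in greenhouse, visual rating versus controls, 0 (no effect) to 100 (complete control).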

[4] = system: ryegrass, Italian (Italian ryegrass, Lolium multiflorum); assay: Test C pre-/postemergence: ryegrass, Italian
Text: (§3) Seeds of plant species selected from blackgrass (Alopecurus myosuroides), bromegrass, downy (downy bromegrass, Bromus tectorum), foxtail, green (green foxtail, Setaria viridis), ryegrass, Italian (Italian ryegrass, Lolium multiflorum), winter wheat (Triticum aestivum), wild oat (Avena fatua), galium (catchweed bedstraw, Galium aparine), bermudagrass (Cynodon dactylon), surinam grass (Brachiaria decumbens), cocklebur (common cocklebur, Xanthium strumarium), corn (Zea mays), large crabgrass (Digitaria sanguinalis), woolly cupgrass (Eriochloa villosa), foxtail, giant (giant foxtail, Setaria faberii), goosegrass (Eleusine indica), johnsongrass (Sorghum halepense), kochia (Kochia scoparia), lambsquarters (Chenopodium album), morningglory (Ipomoea coccinea), nightshade (eastern black nightshade, Solanum ptycanthum), nutsedge, yellow (yellow nutsedge, Cyperus esculentus), pigweed (Amaranthus retroflexus), ragweed (common ragweed, Ambrosia elation), soybean (Glycine max), common (oilseed) sunflower (Helianthus annuus), Russian thistle (Salsola kali) and velvetleaf (Abutilon theophrasti) were planted into a blend of loam soil and sand and treated preemergence with test chemicals formulated in a non-phytotoxic solvent mixture which included a surfactant.
(§4) At the same time, plants selected from these crop and weed species and also barley (winter barley, Hordeum vulgare), canarygrass (Phalaris minor), chickweed (common chickweed, Stellaria media) windgrass (Apera spica-venti) and deadnettle (henbit deadnettle, Lamium amplexicaule) were planted in pots containing Redi-Earth® planting medium (Scotts Company, 14111 Scottslawn Road, Marysville, Ohio 43041) comprising spaghnum peat moss, vermiculite, wetting agent and starter nutrients and treated with postemergence applications of test chemicals formulated in the same manner. Plants ranged in height from 2 to 18 cm (1- to 4-leaf stage) for postemergence treatments.
(§5) Treated plants and controls were maintained in a greenhouse for 13 to 15 days, after which time all species were compared to controls and visually evaluated. Plant response ratings, summarized in Table C, are based on a scale of 0 to 100 where 0 is no effect and 100 is complete control. A dash (-) response means no test result.

[5] = system: galium (catchweed bedstraw, Galium aparine); assay: Test C pre-/postemergence: galium
Procedure, shortened: as §2

[6] = system: large crabgrass (Digitaria sanguinalis); assay: Test C pre-/postemergence: large crabgrass
Text: as §3, §4, §5

[7] = system: foxtail, giant (giant foxtail, Setaria faberii); assay: Test C pre-/postemergence: foxtail, giant
Text: as §3, §4, §5

kochia (Kochia scoparia) = assay: Test C pre-/postemergence: kochia
Text: as §3, §4, §5

[8] = system: pigweed (Amaranthus retroflexus); assay: Test C pre-/postemergence: pigweed
Text: as §3, §4, §5

[9] = system: ragweed (common ragweed, Ambrosia elation); assay: Test C pre-/postemergence: ragweed
Procedure, shortened: as §2

soybean (Glycine max) = assay: Test C pre-/postemergence: soybean
Procedure, shortened: as §2

[10] = Postemergence, 31 g ai/ha, scale 0 to 100 (0 no effect, 100 complete control)
[11] = Postemergence, 62 g ai/ha, scale 0 to 100 (0 no effect, 100 complete control)
[12] = Postemergence, 125 g ai/ha, scale 0 to 100, 0 no effect, 100 complete control
[13] = Postemergence, 250 g ai/ha, scale 0 to 100
[14] = Preemergence, 31 g ai/ha, scale of 0 to 100, 0 is no effect, 100 is complete control
[15] = Preemergence, 125 g ai/ha, scale 0 to 100, 0 no effect, 100 complete control
[16] = Preemergence, 250 g ai/ha, scale 0 to 100, 0 no effect, 100 complete control
[17] = Preemergence, 62 g ai/ha, scale of 0 to 100, 0 is no effect, 100 is complete control
[18] = Postemergence, visual rating on 0 to 100 scale (0 no effect, 100 complete control), approximately ten days
[19] = Preemergence, 0 to 100 scale, 0 is no effect, 100 is complete control
[20] = Postemergence, 16 g ai/ha, scale 0 to 100, 0 no effect, 100 complete control

Cc1nn(-c2ccc(C(F)(F)F)cc2)nc1Cc1ccnc(C(F)(F)F)c1 [Compound 47, 4-[[5-methyl-2-[4-(trifluoromethyl)phenyl]-2H-1,2,3-triazol-4-yl]methyl]-2-(trifluoromethyl)pyridine]
pest or weed control at 125 g/ha ([1]; post-emergence, Postemergence, 0 to 100 scale, 0 is no effect, 100 is complete control, read-out: Crabgrass, Large plant response rating): 80% | pest or weed control at 500 g/ha ([1]; post-emergence, Postemergence, visual rating on 0 to 100 scale (0 no effect, 100 complete control), approximately ten days, read-out: Crabgrass, Large plant response rating): 90% | pest or weed control at 125 g/ha ([1]; pre-emergence, Preemergence, 0 to 100 scale (0 no effect, 100 complete control), read-out: Plant response rating, Crabgrass, Large): 100% | pest or weed control at 500 g/ha ([1]; pre-emergence, Preemergence, 0 to 100 scale, 0 is no effect, 100 is complete control, read-out: Plant response rating, Crabgrass, Large): 100% | pest or weed control at 125 g/ha ([2]; post-emergence, Postemergence, 0 to 100 scale, 0 is no effect, 100 is complete control, read-out: Velvetleaf plant response rating): 100% | pest or weed control at 500 g/ha ([2]; post-emergence, Postemergence, visual rating on 0 to 100 scale (0 no effect, 100 complete control), approximately ten days, read-out: Velvetleaf plant response rating): 100% | pest or weed control at 125 g/ha ([2]; pre-emergence, Preemergence, 0 to 100 scale (0 no effect, 100 complete control), read-out: Plant response rating, Velvetleaf): 80% | pest or weed control at 500 g/ha ([2]; pre-emergence, Preemergence, 0 to 100 scale, 0 is no effect, 100 is complete control, read-out: Plant response rating, Velvetleaf): 100% | plant injury at 125 g/ha (corn (Zea mays); Zea mays, post-emergence, 240 h, Postemergence, 125 g ai/ha, 0 to 100 scale, 0 is no effect, 100 is complete control, read-out: Corn plant response rating): 20% | plant injury at 500 g/ha (corn (Zea mays); Zea mays, post-emergence, 240 h, Postemergence, 500 g ai/ha, visual rating on 0 to 100 scale (0 no effect, 100 complete control), approximately ten days, read-out: Corn plant response rating): 40% | Corn plant response rating (crop injury, 0 = no effect, 100 = complete kill) at 125 g/ha (corn (Zea mays); Zea mays, pre-emergence, 240 h, Preemergence, 125 g ai/ha, 0 to 100 scale (0 no effect, 100 complete control)): 20% | Corn plant response rating (crop injury, 0 = no effect, 100 = complete kill) at 500 g/ha (corn (Zea mays); Zea mays, pre-emergence, 240 h, Preemergence, 500 g ai/ha, 0 to 100 scale, 0 is no effect, 100 is complete control): 30% | Plant response rating, Blackgrass [3, 10]: 40 | Plant response rating, Blackgrass [3, 11]: 45 | Plant response rating, Blackgrass [3, 12]: 60 | Plant response rating, Blackgrass [3, 13]: 90 | Plant response rating, Blackgrass [3, 14]: 90 | Plant response rating, Blackgrass ([3]; Preemergence, 62 g ai/ha, scale 0 to 100, 0 no effect, 100 complete control): 98 | Plant response rating, Blackgrass [3, 15]: 100 | Plant response rating, Blackgrass [3, 16]: 100 | Plant response rating, Ryegrass, Italian [4, 10]: 35 | Plant response rating, Ryegrass, Italian [4, 11]: 65 | Plant response rating, Ryegrass, Italian [4, 12]: 75 | Plant response rating, Ryegrass, Italian [4, 13]: 85 | Plant response rating, Ryegrass, Italian [4, 14]: 35 | Plant response rating, Ryegrass, Italian [4, 17]: 50 | Plant response rating, Ryegrass, Italian [4, 15]: 90 | Plant response rating, Ryegrass, Italian [4, 16]: 98 | Plant response rating, Galium [5, 10]: 80 | Plant response rating, Galium [5, 11]: 80 | Plant response rating, Galium [5, 12]: 95 | Plant response rating, Galium [5, 13]: 98 | Plant response rating, Galium [5, 14]: 85 | Plant response rating, Galium [5, 17]: 100 | Plant response rating, Galium [5, 15]: 100 | Plant response rating, Galium [5, 16]: 100 | Plant response rating, Crabgrass, Large [6, 10]: 5 | Plant response rating, Crabgrass, Large [6, 11]: 15 | Plant response rating, Crabgrass, Large [6, 12]: 35 | Plant response rating, Crabgrass, Large [6, 13]: 50 | Plant response rating, Crabgrass, Large [6, 14]: 45 | Plant response rating, Crabgrass, Large [6, 17]: 98 | Plant response rating, Crabgrass, Large [6, 15]: 100 | Plant response rating, Crabgrass, Large [6, 16]: 100 | Plant response rating, Foxtail, Giant [7, 10]: 65 | Plant response rating, Foxtail, Giant [7, 11]: 65 | Plant response rating, Foxtail, Giant [7, 12]: 80 | Plant response rating, Foxtail, Giant [7, 13]: 98 | Plant response rating, Foxtail, Giant [7, 14]: 95 | Plant response rating, Foxtail, Giant [7, 17]: 100 | Plant response rating, Foxtail, Giant [7, 15]: 100 | Plant response rating, Foxtail, Giant [7, 16]: 100 | Plant response rating, Kochia (kochia (Kochia scoparia); [10]): 65 | Plant response rating, Kochia (kochia (Kochia scoparia); [14]): 85 | Plant response rating, Kochia (kochia (Kochia scoparia); [17]): 90 | Plant response rating, Kochia (kochia (Kochia scoparia); [15]): 98 | Plant response rating, Kochia (kochia (Kochia scoparia); [16]): 98 | Plant response rating, Pigweed [8, 10]: 100 | Plant response rating, Pigweed [8, 11]: 100 | Plant response rating, Pigweed [8, 12]: 100 | Plant response rating, Pigweed [8, 13]: 100 | Plant response rating, Pigweed [8, 14]: 100 | Plant response rating, Pigweed [8, 17]: 100 | Plant response rating, Pigweed [8, 15]: 100 | Plant response rating, Pigweed [8, 16]: 100 | Plant response rating, Ragweed [9, 10]: 45 | Plant response rating, Ragweed [9, 11]: 65 | Plant response rating, Ragweed [9, 12]: 75 | Plant response rating, Ragweed [9, 13]: 95 | Plant response rating, Ragweed [9, 14]: 5 | Plant response rating, Ragweed [9, 17]: 15 | Plant response rating, Ragweed [9, 15]: 45 | Plant response rating, Ragweed [9, 16]: 80 | Plant response rating, Soybean (soybean (Glycine max); [10]): 40 | Plant response rating, Soybean (soybean (Glycine max); [11]): 70 | Plant response rating, Soybean (soybean (Glycine max); [12]): 75 | Plant response rating, Soybean (soybean (Glycine max); [13]): 75 | Plant response rating, Soybean (soybean (Glycine max); [14]): 0 | Plant response rating, Soybean (soybean (Glycine max); [17]): 0 | Plant response rating, Soybean (soybean (Glycine max); [15]): 5 | Plant response rating, Soybean (soybean (Glycine max); [16]): 35

Cc1nn(-c2ccc(C(F)(F)F)cc2)nc1Cc1cccc(C(F)(F)F)c1 [Compound 124]
Crabgrass, Large plant response rating [1, 18]: 90 | Crabgrass, Large plant response rating [1, 19]: 100 | Velvetleaf plant response rating [2, 18]: 100 | Velvetleaf plant response rating [2, 19]: 80 | Corn plant response rating (corn (Zea mays); [18]): 60 | Corn plant response rating (corn (Zea mays); [19]): 10 | Plant response rating, Blackgrass [3, 20]: 0 | Plant response rating, Blackgrass [3, 10]: 35 | Plant response rating, Blackgrass [3, 11]: 50 | Plant response rating, Blackgrass [3, 12]: 85 | Plant response rating, Ryegrass, Italian [4, 20]: 5 | Plant response rating, Ryegrass, Italian [4, 10]: 15 | Plant response rating, Ryegrass, Italian [4, 11]: 35 | Plant response rating, Ryegrass, Italian [4, 12]: 65 | Plant response rating, Galium [5, 20]: 70 | Plant response rating, Galium [5, 10]: 70 | Plant response rating, Galium [5, 11]: 80 | Plant response rating, Galium [5, 12]: 85 | Plant response rating, Crabgrass, Large [6, 20]: 20 | Plant response rating, Crabgrass, Large [6, 10]: 30 | Plant response rating, Crabgrass, Large [6, 11]: 40 | Plant response rating, Crabgrass, Large [6, 12]: 45 | Plant response rating, Foxtail, Giant [7, 20]: 15 | Plant response rating, Foxtail, Giant [7, 10]: 15 | Plant response rating, Foxtail, Giant [7, 11]: 25 | Plant response rating, Foxtail, Giant [7, 12]: 45 | Plant response rating, Kochia (kochia (Kochia scoparia); [20]): 75 | Plant response rating, Kochia (kochia (Kochia scoparia); [10]): 80 | Plant response rating, Kochia (kochia (Kochia scoparia); [11]): 80 | Plant response rating, Kochia (kochia (Kochia scoparia); [12]): 85 | Plant response rating, Pigweed [8, 20]: 75 | Plant response rating, Pigweed [8, 10]: 90 | Plant response rating, Pigweed [8, 11]: 95 | Plant response rating, Pigweed [8, 12]: 98 | Plant response rating, Ragweed [9, 20]: 45 | Plant response rating, Ragweed [9, 10]: 50 | Plant response rating, Ragweed [9, 11]: 65 | Plant response rating, Ragweed [9, 12]: 65 | Plant response rating, Soybean (soybean (Glycine max); [20]): 45 | Plant response rating, Soybean (soybean (Glycine max); [10]): 55 | Plant response rating, Soybean (soybean (Glycine max); [11]): 55 | Plant response rating, Soybean (soybean (Glycine max); [12]): 60
